Patent publication US20130224223A1, “Compositions and Methods for Treating Neurological Disorders” (GEORGIA REGENTS UNIVERSITY, priority 2007, published 2013)

Target: T1, ErbB4 (Rattus norvegicus, UniProt Q62956)
T1 construct: cerebral cortex was dissected out of Sprague-Dawley rat embryos (E18) and dissociated; endogenous in cells; host or cells: primary rat (Sprague-Dawley) embryonic cortical neurons, DIV14, GAD65-positive
Experiment: phospho-ErbB4 immunostaining in GAD65-positive cortical neurons
Format: cell-based
Conditions: pretreatment 10 min before 5 nM NRG1; AG1478/AG879 5 mM [sic]
Experimental: FIG. 4A is a bar graph showing quantitative analysis of phospho-ErbB4 (p-ErbB4) in GAD65-positive cortical neurons treated with ecto-ErbB4 for 10 min prior to the addition of NRG1 (5 nM, final concentration) for another 10 min. n=7, *p<0.05. FIG. 4B is a line graph of eIPSC amplitude (nA) versus time (min) for cortical slices treated with sequential addition of NRG1 (5 nM) and ecto-ErbB4 (1 μg/ml and 2 μg/ml) (all final concentrations). On the top are averaged traces before (a) and after (b) NRG1, and after different dosages of ecto-ErbB4 ([c] and [d], 1 and 2 μg/ml, respectively). […]
FIG. 5A is a bar graph of phospho-ErbB4 (p-ErbB4) in cortical neurons treated with 5 mM AG1478, an inhibitor of ErbB4, or AG879, an inhibitor of ErbB2, for 10 min prior to the addition of NRG1 (5 nM, final concentration). Neurons were fixed and stained with phospho-ErbB4 and GAD65 antibodies, and visualized with Alexa 594 and FITC-coupled secondary antibodies respectively, and quantified. […]

T1 sequence (Q62956 26-1308): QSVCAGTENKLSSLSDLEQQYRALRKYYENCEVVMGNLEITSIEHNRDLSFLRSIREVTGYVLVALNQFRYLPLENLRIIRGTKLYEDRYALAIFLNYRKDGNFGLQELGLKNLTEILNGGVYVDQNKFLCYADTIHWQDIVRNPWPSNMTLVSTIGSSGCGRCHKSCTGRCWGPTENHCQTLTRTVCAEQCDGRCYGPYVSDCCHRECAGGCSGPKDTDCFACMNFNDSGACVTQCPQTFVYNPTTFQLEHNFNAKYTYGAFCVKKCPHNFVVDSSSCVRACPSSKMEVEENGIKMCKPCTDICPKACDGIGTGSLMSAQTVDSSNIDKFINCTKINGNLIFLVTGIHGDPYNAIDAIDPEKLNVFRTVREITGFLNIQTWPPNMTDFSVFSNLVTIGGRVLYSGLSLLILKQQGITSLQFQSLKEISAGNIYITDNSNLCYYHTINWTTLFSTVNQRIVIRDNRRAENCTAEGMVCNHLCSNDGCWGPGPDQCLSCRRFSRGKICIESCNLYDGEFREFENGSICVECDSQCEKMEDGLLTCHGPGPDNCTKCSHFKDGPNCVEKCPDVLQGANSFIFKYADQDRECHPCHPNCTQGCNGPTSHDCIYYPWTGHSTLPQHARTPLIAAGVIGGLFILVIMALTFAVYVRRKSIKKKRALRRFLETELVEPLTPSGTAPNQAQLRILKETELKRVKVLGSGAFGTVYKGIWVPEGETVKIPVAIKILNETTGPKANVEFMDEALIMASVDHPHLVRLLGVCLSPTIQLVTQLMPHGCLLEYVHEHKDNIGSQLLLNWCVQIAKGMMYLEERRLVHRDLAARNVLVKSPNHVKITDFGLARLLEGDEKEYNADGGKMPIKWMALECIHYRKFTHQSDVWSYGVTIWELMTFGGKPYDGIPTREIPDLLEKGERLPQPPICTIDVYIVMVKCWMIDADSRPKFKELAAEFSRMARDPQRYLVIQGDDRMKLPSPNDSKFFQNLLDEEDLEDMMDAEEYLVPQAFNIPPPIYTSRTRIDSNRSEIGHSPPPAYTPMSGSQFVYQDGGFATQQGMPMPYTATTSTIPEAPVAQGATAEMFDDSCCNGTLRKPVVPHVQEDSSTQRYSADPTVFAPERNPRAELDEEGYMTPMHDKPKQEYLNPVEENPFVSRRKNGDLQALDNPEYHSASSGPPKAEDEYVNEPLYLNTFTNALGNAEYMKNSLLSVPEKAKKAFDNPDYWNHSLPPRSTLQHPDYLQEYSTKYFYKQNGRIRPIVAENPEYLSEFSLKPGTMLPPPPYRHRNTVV

Compound: COc1cc2ncnc(Nc3cccc(Cl)c3)c2cc1OC [AG1478]
- NRG1 activation (tyrosine phosphorylation) of ErbB4: blocked
